In assay [1] the target is T1, Voltage-Gated Sodium channel hNav1.6 (Homo sapiens, UniProt Q9UQD0).
T1 construct: Eurofins Discovery (St. Charles, MO, USA)
Briefly: human sodium ion channel cell based automated patch clamp assay, hNav1.6. The protocol:
(§1) Therefore, as a part of the more detailed functional characterization using automated patch clamp method, we tested the influence of (R)-32 on sodium currents mediated by several Navx channels comprising 5 different human subunits, namely, Nav1.1, Nav1.2, Nav1.3, Nav1.6, and Nav1.7, which are involved in both seizure and/or pain modulation.[74],[80],[81] As summarized in Tables S4–S8, (R)-32 starting from 10 μM effectively and in concentration-dependent manner decreased sodium currents mediated by all aforementioned sodium channel subunits. Furthermore, (R)-32 appeared to bind exclusively to sodium channels that are in an inactivated state (see pulse 2 in Tables S4–S8), but not to the channels that are in an open state (pulse 1) (for additional details, see Supporting Information).
(§2) Human sodium ion channels cell based automated patch clamp assay
Human sodium ion channels cell based automated patch clamp assays: sodium channels exist in, a) a resting or closed state at -120 mV, b) a transient open state that inactivates to c) inactivated state at -10 mV. Sodium current inhibition within 1-2 ms of channel opening at 0 mV is open channel inhibition (pulse 1). In order to completely inactivate the sodium channels and facilitate inactivated state-dependent binding of the drug, the channels were kept at […] ( -10 mV) longer (pulsed for 500 ms) and then stepped back to -120 mV for 10 ms to recover from inactivation into resting or closed state (but the channels that had drug bound to them will not recover from inactivation and will not open) before stepping to -10 mV for 50 ms (pulse 2) to mea sure sodium channels that are available to open. The higher inhibition seen at pulse 2 is due to inactivated state -dependent inhibition. Pulse 1 and 2 are used to investigate drug binding to the open state and inactivated state of the Na channels, respectively. Each concentration of compound is applied for 5 minutes. The results obtained for (R)-32 are summerized in Tables S4–S8. […]
(§3) Compound Concentration Measurement % Inhibition
(§4) Data interpretation: Results showing inhibition greater than 50% are considered to represent significant effects of test compound and have been bolded for (R)-32 for better visualization. The studies were carried out in Eurofins Discovery (St. Charles, MO, USA).

Assay [2] has as its target T2, Voltage-Gated Sodium channel hNav1.1 (Homo sapiens, UniProt P35498).
T2 construct: Eurofins Discovery (St. Charles, MO, USA)
Briefly: human sodium ion channel cell based automated patch clamp assay, hNav1.1. The protocol:
as §1, §2
Human sodium ion channels cell based automated patch clamp assays: sodium channels exist in, a) a resting or closed state at -120 mV, b) a transient open state that inactivates to c) inactivated state at -10 mV. Sodium current inhibition within 1-2 ms of channel opening at 0 mV is open channel inhibition (pulse 1). In order to completely inactivate the sodium channels and facilitate inactivated state-dependent binding of the drug, the channels were kept at […] ( -10 mV) longer (pulsed for 500 ms) and then stepped back to -120 mV for 10 ms to recover from inactivation into resting or closed state (but the channels that had drug bound to them will not recover from inactivation and will not open) before stepping to -10 mV for 50 ms (pulse 2) to mea sure sodium channels that are available to open. The higher inhibition seen at pulse 2 is due to inactivated state -dependent inhibition. Pulse 1 and 2 are used to investigate drug binding to the open state and inactivated state of the Na channels, respectively. Each concentration of compound is applied for 5 minutes. The results obtained for (R)-32 are summerized in Tables S4–S8.
Table S4. Effect of the (R)-32 on subunit Nav1.1.
Voltage-Gated Sodium channel hNav1.1
as §3, §4
A general note: In patch-clamp work, channel activity is measured electrically.

Assay [3] has as its system fast voltage-gated sodium channels in rat prefrontal cortex pyramidal neurons. The assay can be described thus: patch-clamp of fast voltage-gated sodium currents in prefrontal cortex pyramidal neurons. Format: cell-based. The settings on record: 10 μM, control = 1.0, n = 5. An excerpt:
Figure 9 Compounds (R)-31 and (R)-32 inhibit fast voltage-gated sodium currents in prefrontal cortex pyramidal neurons. (A) Example sodium current recordings in control (black trace), after application of (R)-31 (blue trace) and after wash-out (red trace). Current traces were evoked by a rectangular voltage-step. (B) Influence of (R)-31 on sodium current is shown on an example neuron. Current traces were evoked once every 10 s. […] (C) Averaged, normalized maximal sodium current amplitudes in control, in the presence of (R)-31 and after wash-out. […] (D) Example sodium current recordings in control (black trace), after application of (R)-32 (blue trace) and after wash-out (red trace). Current traces were evoked by a rectangular voltage-step. (E) Influence of (R)-32 on sodium current is shown on an example neuron. Current traces were evoked once every 10 s. […] (F) Averaged, normalized maximal sodium current amplitudes in control, in the presence of (R)-32 and after wash-out.
Patch-clamp studies were carried out in prefrontal cortex pyramidal neurons. The methodology of slice preparation, preparation of dispersed cortical neurons, and sodium currents recording technique were the same as in our previous study.[99]

Assay [4] relates to 6 Hz (44 mA) seizures, mice. The assay can be described thus: 6 Hz (44 mA) seizure test. Format: in vivo. Particulars: Mus musculus, ip, pretreatment time 0.5 h.
Description: Both the aforementioned parameters (ED50 and TD50) enabled the calculation of protective indexes (PIs), which reflect the comparative the benefit–risk ratio of these experimental therapeutic agents.
Four mice per group were randomly assigned to each experimental group in the initial screening experiments (each mouse was used just once). Four groups, each with eight animals, received injections of different doses of the investigated substances in order to determine the ED50 or TD50 values. The PIs for the compounds investigated and reference ASMs were calculated by dividing the TD50 value, as determined in the chimney test by the respective ED50 value, as determined in the MES, scPTZ, or 6 Hz (32 mA or 44 mA) tests (PI = TD50/ED50). The PIs are a measure of the potential therapeutic window of the tested agent.
All substances were suspended in Tween 80 (1% aqueous solution) and administered i.p. as a single injection at a volume of 10 mL/kg. On each day of experimentation, fresh solutions were prepared.
The mark [5] stands for this setting: hNav1.6, Pulse 1 (open state), read-out: % Inhibition Mean.
The mark [6] stands for this setting: hNav1.6, Pulse 1 (open state), read-out: % Inhibition n1.
Setting [7] is: hNav1.6, Pulse 1 (open state), read-out: % Inhibition n2.
[8] abbreviates: hNav1.6, Pulse 2 (inactivated state), read-out: % Inhibition Mean.
Where [9] appears, read: hNav1.6, Pulse 2 (inactivated state), read-out: % Inhibition n1.
[10] abbreviates: hNav1.6, Pulse 2 (inactivated state), read-out: % Inhibition n2.
The mark [11] stands for this setting: hNav1.1, Pulse 1 (open state), read-out: % Inhibition Mean.
Where [12] appears, read: hNav1.1, Pulse 1 (open state), read-out: % Inhibition n1.
The mark [13] stands for this setting: hNav1.1, Pulse 1 (open state), read-out: % Inhibition n2.
[14] abbreviates: hNav1.1, Pulse 2 (inactivated state), read-out: % Inhibition Mean.
Where [15] appears, read: hNav1.1, Pulse 2 (inactivated state), read-out: % Inhibition n1.
The mark [16] stands for this setting: hNav1.1, Pulse 2 (inactivated state), read-out: % Inhibition n2.

Read-outs that look alike come from different tables or passages of the source.

T1 sequence (Q9UQD0 whole entry): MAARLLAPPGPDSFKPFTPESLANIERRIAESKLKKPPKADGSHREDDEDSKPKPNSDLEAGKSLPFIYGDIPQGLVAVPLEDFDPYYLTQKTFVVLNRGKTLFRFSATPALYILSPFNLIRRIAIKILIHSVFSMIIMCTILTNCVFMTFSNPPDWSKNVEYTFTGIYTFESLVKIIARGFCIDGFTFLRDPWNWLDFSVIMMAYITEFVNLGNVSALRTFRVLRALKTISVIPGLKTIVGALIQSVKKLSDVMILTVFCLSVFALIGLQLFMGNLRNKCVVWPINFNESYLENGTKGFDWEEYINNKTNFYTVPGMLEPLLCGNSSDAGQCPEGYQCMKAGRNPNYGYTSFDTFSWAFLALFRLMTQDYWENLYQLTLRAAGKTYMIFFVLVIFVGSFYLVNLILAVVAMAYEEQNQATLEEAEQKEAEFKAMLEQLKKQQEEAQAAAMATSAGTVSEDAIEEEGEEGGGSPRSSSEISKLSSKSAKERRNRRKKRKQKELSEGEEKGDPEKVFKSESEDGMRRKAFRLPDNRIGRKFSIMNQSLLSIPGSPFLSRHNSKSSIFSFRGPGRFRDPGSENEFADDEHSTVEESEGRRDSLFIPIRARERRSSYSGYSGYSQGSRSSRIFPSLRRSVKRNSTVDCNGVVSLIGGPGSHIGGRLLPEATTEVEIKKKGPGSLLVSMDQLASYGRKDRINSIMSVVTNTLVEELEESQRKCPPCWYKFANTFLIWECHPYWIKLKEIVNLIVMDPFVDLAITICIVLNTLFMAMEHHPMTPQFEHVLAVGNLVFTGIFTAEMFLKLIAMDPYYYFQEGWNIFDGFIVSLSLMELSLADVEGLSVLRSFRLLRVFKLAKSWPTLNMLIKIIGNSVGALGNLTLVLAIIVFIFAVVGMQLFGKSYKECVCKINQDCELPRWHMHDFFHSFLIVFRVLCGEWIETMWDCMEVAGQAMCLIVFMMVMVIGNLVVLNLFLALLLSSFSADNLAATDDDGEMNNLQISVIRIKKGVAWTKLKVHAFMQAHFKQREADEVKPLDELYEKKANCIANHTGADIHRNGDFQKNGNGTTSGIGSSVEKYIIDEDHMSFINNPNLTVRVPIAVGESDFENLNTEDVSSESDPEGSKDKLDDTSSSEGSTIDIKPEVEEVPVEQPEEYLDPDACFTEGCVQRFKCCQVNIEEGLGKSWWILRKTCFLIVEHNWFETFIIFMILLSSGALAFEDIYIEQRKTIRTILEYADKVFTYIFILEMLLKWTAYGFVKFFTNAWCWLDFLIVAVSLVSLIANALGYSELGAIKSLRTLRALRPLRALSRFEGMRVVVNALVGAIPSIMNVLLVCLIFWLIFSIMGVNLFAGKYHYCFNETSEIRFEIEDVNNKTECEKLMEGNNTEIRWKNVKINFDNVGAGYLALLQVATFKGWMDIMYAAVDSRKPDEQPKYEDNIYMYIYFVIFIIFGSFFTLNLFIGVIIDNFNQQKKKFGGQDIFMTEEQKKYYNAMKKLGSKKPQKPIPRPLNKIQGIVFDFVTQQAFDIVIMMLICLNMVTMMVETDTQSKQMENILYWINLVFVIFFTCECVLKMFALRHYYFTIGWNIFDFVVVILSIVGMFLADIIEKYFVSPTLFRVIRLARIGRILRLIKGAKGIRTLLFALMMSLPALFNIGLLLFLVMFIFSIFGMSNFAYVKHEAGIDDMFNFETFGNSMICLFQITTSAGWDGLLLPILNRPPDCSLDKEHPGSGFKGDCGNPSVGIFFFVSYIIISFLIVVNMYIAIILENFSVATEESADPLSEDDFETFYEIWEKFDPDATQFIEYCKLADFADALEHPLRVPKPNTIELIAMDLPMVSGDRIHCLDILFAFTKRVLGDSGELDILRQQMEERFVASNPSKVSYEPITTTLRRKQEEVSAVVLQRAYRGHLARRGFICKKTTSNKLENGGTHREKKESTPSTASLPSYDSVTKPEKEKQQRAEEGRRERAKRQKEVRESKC

Take `CCCCNc1ccc(C(=O)OCCN(C)C)cc1` [Tetracaine, reference compound]: the inhibition at 3 µM in assay [1] (setting [5]) came to 4.79%; in assay [1] (setting [6]) it was 7.73%; in assay [1] (setting [7]) it was 1.85%; in assay [1] (setting [8]), 86.4%; in assay [1] (setting [9]), 80.8%; in assay [1] (setting [10]), 91.9%. The inhibition at 3 µM in assay [2] (setting [11]) turned out to be 3.28%; in assay [2] (setting [12]), 4.33%; in assay [2] (setting [13]) it was 2.23%; in assay [2] (setting [14]) it was 54.9%; in assay [2] (setting [15]), 58.3%; in assay [2] (setting [16]), 51.5%. Also, the inhibition at 30 µM stood at 34.7% in assay [1] (setting [5]); 34.7% in assay [1] (setting [6]); 34.7% in assay [1] (setting [7]); 99.2% in assay [1] (setting [8]); 95.7% in assay [1] (setting [9]); 103% in assay [1] (setting [10]). In addition, the inhibition at 30 µM was 16.2% in assay [2] (setting [11]); 20.5% in assay [2] (setting [12]); 11.9% in assay [2] (setting [13]); 95.7% in assay [2] (setting [14]); 96.6% in assay [2] (setting [15]); 94.8% in assay [2] (setting [16]). Further, the inhibition at 300 µM in assay [1] (setting [5]) stood at 75%; in assay [1] (setting [6]), 68.2%; in assay [1] (setting [7]), 81.8%; in assay [1] (setting [8]) it was 97.9%; in assay [1] (setting [9]), 91.3%; in assay [1] (setting [10]), 104%. Further, the inhibition at 300 µM in assay [2] (setting [11]) turned out to be 89.7%; in assay [2] (setting [12]), 91%; in assay [2] (setting [13]), 88.4%; in assay [2] (setting [14]) it was 101%; in assay [2] (setting [15]), 102%; in assay [2] (setting [16]), 100%.

With `CC(=O)N[C@@H](C(=O)N1CCN(c2cccc(C(F)(F)F)c2)CC1)c1ccccc1` [(R)-31, (R)-N-(2-Oxo-1-phenyl-2-(4-(3-(trifluoromethyl)phenyl)piperazin-1-yl)ethyl)acetamide], in assay [3], the “averaged, maximal-normalized amplitude of voltage-gated sodium currents after application” value stood at 0.66 ± 0.04 and the “averaged, maximal-normalized amplitude of voltage-gated sodium currents after wash-out” value was 0.76 ± 0.05. The 50% effective dose (ED50) in assay [4] was determined as 44.2 mg/kg.

For orientation: inhibition means the change of the read-out against control, counted positive when it falls. As usually defined, the ED50 is the dose at which the effect has come halfway, by size or by number of responders.

For the origin of these results see PMC11378297, “Discovery and Profiling of New Multimodal Phenylglycinamide Derivatives as Potent Antiseizure and Antinociceptive Drug Candidates” (ACS Chemical Neuroscience, 2024).
